In this assay the test system is PHA-stimulated lymphocytes. In words: Mixed lymphocyte culture with PHA-stimulated lymphocytes, 3[H]-thymidine incorporation. It counts as cell-based, human. The following applies: 2 μmol 1-MT. Here is the method:
In order to clarify, whether the inhibitor of the enzyme indolamine-2,3-dioxygenase (IDO) 1-methyltryptophane (1-MT) influences the suppressor function of the TAIC generated in the “Mo” and “Mo+Ly” set ups (see Example 4), a variety of mixed lymphocyte cultures (MLC) with PHA (phytohaemagglutinine) stimulated T-cells in the presence and in the absence of 1-MT were established.
In these mixed lymphocyte cultures 50.000 lymphocytes with 2 μg PHA were transferred into the wells of a 96-well-plate, followed by a proliferation period over 144 hours (indicated as “PhaLy”). Lymphocytes only cultivated in medium without addition of PHA were run as a further control (indicated as “Ly”). […]
After 144 hours cultivation, all controls or co-cultures were further cultivated for 24 hours in the presence of ^3[H]-thymidine (“pulsed”) and thereafter the amount of radioactively labeled thymidine incorporated was determined as counts per minute (cpm), see FIG. 4. In this arrangement, the amount of the radio activity determined is a measure for the amount of labeled thymidine incorporated into the DNA, and therefore a measure for the proliferation rate of the lymphocytes. […]

Turning to `Cn1cc(C[C@H](N)C(=O)O)c2ccccc21` [1-MT, 1-methyltryptophane], the “influence of 1-MT on the suppressor function of the TAIC” value is recorded as “increases the suppressor function of the TAIC synergistically”. In addition, the “influence of 1-MT on the suppressor function of the TAIC” value (listed as 1-methyltryptophane) is “no influence”.

The values are drawn from US20060188485A1, “Autologous self-tolerance inducing cells of monocytic origin and their use in pharmaceutical preparations” (priority 2003, published 2006).
